Reference: patent US20260216138A1, “IDENTIFICATION OF OTUD7B INHIBITOR 7BI AND ITS APPLICATION IN REDUCING GROWTH OF NSCLC AND LEUKEMIA CELLS” (The University of North Carolina at Chapel Hill, priority 2023, published 2026)
pIC50: −log10 of the molar value.

Experiments:
Akt-pS473 = Akt-pS473 immunoblot in leukemia cells (HL60, K562, THP1); format: cell-based; settings: indicated doses, 16 hrs
Protocol: Cells were harvested and lysed in EBC buffer (50 mM Tris pH 7.5, 120 mM NaCl, 0.5% NP-40) supplemented with protease inhibitor cocktail (EDTA-free, mini-tablet) (Bimake) and phosphatase inhibitor cocktail (Bimake) by rotating in the cold room for 10 min followed by high-speed centrifugation at 4° C. The protein concentrations in supernatants of whole cell lysates were measured by NanoDrop OneC using the Bio-Rad Bradford protein assay reagent. Equal amounts of whole cell lysates were resolved on SDS-PAGE and immunoblotted with indicated antibodies. For immunoprecipitation analysis, 1 mg of total cell lysate was incubated with the indicated beads for 3-4 hr at 4° C. The recovered immuno-complexes were washed thoroughly three times with NETN buffer (20 mM Tris, pH 8.0, 100 mM NaCl, 1 mM EDTA and 0.5% NP-40) before being resuspended in SDS sample buffer and resolved on SDS-PAGE and immunoblotted with indicated antibodies.
In addition to NSCLC, overexpression of OTUD7B was also observed in diffuse large B-cell lymphoma and served as a prognostic marker. This promoted us to examine roles of OTUD7B in leukemia cells. […] Similar to NSCLC cells, depletion of OTUD7B in K562 cells also led to increased K63-linked GβL ubiquitination (FIG. 4D). Consistent with a reduction in Akt-pS473 signals, OTUD7B depletion reduced the growth of THP1 (FIG. 4E), K562 (FIG. 4F) and HL60 (FIG. 4G) cells in vitro.

OTUD7B = target: T1, OTUD7B (Homo sapiens, UniProt Q6GQQ9); test: In vitro OTUD7B deubiquitination assay, K11-linked di-ub cleavage; format: biochemical
T1 construct: OTUD7B (residues 56-446); GST (N, cleaved yes); made in house; host or cells: E. coli BL21-Codon Plus (DE3)-RIL
T1 sequence (Q6GQQ9 56-446): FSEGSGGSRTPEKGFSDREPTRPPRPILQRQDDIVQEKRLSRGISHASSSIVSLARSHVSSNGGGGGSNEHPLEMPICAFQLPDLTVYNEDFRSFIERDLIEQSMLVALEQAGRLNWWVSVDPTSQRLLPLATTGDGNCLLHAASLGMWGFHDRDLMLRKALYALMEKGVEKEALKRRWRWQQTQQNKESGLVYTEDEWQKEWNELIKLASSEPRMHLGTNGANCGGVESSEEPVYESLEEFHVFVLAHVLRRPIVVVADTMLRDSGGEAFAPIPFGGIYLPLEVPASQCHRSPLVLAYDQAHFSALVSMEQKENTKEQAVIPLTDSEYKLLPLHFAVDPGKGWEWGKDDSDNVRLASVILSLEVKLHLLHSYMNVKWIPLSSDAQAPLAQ
Excerpt: OTUD7B (residues 56-446), OTUD7A (residues 1-462), USP21 (residues 196-565), and USP9X (residues 1551-1970) proteins were expressed in E. Coli BL21-Codon Plus (DE3)-RIL cells. Through an N-terminal GST tag, the DUBs were purified by affinity chromatography using glutathione sepharose 4B (GS4B) resin. Following the liberation of the DUB from the GST tag. the DUBs were subjected to size exclusion chromatography (SEC). To form the K11-linked di-ub, individual ubiquitins (K11R-substituted donor Ub and ΔGG acceptor ubiquitin) were purified and fluorescently-labeled on an N-terminal cysteine using either Cy3- (donor) or Cy5-maleimide (acceptor). The different ubiquitins were then added to a mixture containing UBA1, UBE2S, and MgATP to form di-ub. After an overnight incubation at room temperature, UBE2S was removed by cation-exchange chromatography and the di-ub was purified by SEC. These proteins were used to monitor DUB activity in the presence or absence of the various inhibitors. The inhibitors were incubated with DUBs in a reaction buffer (20 mM Hepes pH=8.0, 200 mM NaCl, 0.25 mg/mL BSA and 0.005% Tween-20) for 5 min at room temperature and then 0.5 uM fluorescently-labeled di-ub (K11-linked) was added to start the reaction. 5×SDS-PAGE loading buffer was used to quench the reaction at the indicated time point. […] Mono-ubiquitin was quantified to generate an IC50 value. […]

NSCLC cells = test: NSCLC cell growth; format: cell-based; settings: read-out: IC50 values to suppress NSCLC cell growth
Protocol: 500 cells from OTUD7B depleted A549 cells were seeded into each well of 6-well plates and cultured in the 37° C. incubator with 5% CO2 for 10-15 days until formation of visible colonies. Triplicates were performed. To test the effect of a given inhibitor on colony formation ability, 800 cells from A549, H520 and H1299 cell lines were seeded into each well of 6-well plates, respectively. Each inhibitor was added at indicated concentration the next day. Colonies were counted after 10 days of treatment. The colony staining method was as described. […] Colony numbers were counted manually. […]
2,000 cells from indicated NSLC cell lines were seeded into each well of 96-well plates. Cell viability was measured 3 days post-treatment using MTT assays following manufacturer's instruction. […] Inhibitor was added the next day at indicated concentration and cell viability was measured after 3-day treatment. For cell proliferation assays in THP1, K562 and HL60 cell lines, 1×10^6 cells from each indicated cell line were seeded in 12.5 cm2 cell culture flask and cells were counted by hemocytometer under microscope at indicated time to monitor cell proliferation. […] Inhibitor was added the next day at indicated concentrations and cell number was counted after 3 days treatment. […]

- pIC50 (OTUD7B; 0.5 uM K11-diub and 5 nM active OTUD7B, 10 min, read-out: IC50, OTUD7B catalytic activity): ~4.40
Structure (SMILES): Cc1cc(NC(=O)c2cnn(C)c2C(=O)Nc2cc(C)nn2C2CCCC2)n(C2CCCC2)n1 [7Bi]
- Akt-pS473 signals (Akt-pS473; HL60 cells): reduced Akt-pS473 signals
- Akt-pS473 signals (Akt-pS473; K562 cells): reduced Akt-pS473 signals
- Akt-pS473 signals (Akt-pS473; THP1 cells): reduced Akt-pS473 signals
- suppression of OTUD7B-mediated K11-diub cleavage by purified 7Bi (OTUD7B; HPLC purified 7Bi (~99% purity) compared with 90% purity): retained its ability to suppress OTUD7B-mediated K11-diub cleavage in vitro
- pIC50 (NSCLC cells): ~5.60
